# Test results from publication PMC7913925, “Design and Evaluation of a Polypeptide That Mimics the Integrin Binding Site for EDA Fibronectin to Block Profibrotic Cell Activity” (International Journal of Molecular Sciences, 2021).
# Bridges are numbered along the chain shown (N, C = ends). Where no end group is shown, it is not given here.
# T1: antifibrotic 38-amino-acid polypeptide (AF38Pep) (disulfide bridge between the two cysteines)
# T1 construct: two stretches derived from integrins β1 and α4, linked by a serine; Design contains the ISTTPAK motif of integrin β1/β7 and the KNENKI motif of integrin α4; source: synthetic peptide (ChinaPeptides)
# T1 peptide: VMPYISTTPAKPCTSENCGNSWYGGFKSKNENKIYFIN
# T2: FN-EDA, a peptide sharing amino acid sequence with the C-C′ loop of EDA-FN
# T2 peptide: TYSSPEDGIHEL
# Key:
# [1] = tested on: EDA-FN in fixed fibroblast or myofibroblast ECM; test: Competitive labelling of fixed matrices, AF38Pep-Cy5 and IST-9; format: cell-based
# Protocol: (§1) A solution containing 1:1 molar ratio of AF38Pep to non-sulphated Cy5-NHS-ester (APExBIO, Houston, TX, USA) was incubated overnight in RT, shielded from light and under constant mixing. The following day, the solution was passed through a PD-10 Sephadex G-25 M gel filtration column (GE Healthcare, Chicago, IL, USA) into PBS. The first 3 fractions (highest molecular weight) were collected, dialyzed (membrane MWCO 1 kDa) against ddH2O overnight, and concentrated by vacuum centrifuge at 3000 rpm at 60 °C for 3 h. Fibroblasts were grown to 70% confluence in 12-well tissue culture plates, before growth arrest in serum-free DMEM for 48 h. Cells were then treated with 10 ng/mL TGF-β1 for 0, 24, 48 and 72 h. The conjugated AF38Pep-Cy5 was added to the plate wells at 10 µg/mL and was incubated for 2 h. The culture medium was removed, and cells were washed three times with PBS before replenishment with fresh serum-free DMEM. Any AF38Pep-Cy5 that remained bound to EDA-FN was assessed using an IVIS imaging system (Caliper Life Sciences, PerkinElmer, Hopkinton, MA, USA) set to detect Cy5.5 epifluorescence after excitation at 640 nm. Epifluorescence was quantified using Living Image v4.2 analysis software (Caliper Life Sciences).
# Cells were grown to 40% confluence in 8-well glass chamber slides (Nunc, Thermo Fisher Scientific), prior to growth arrest and treatment. Cells were washed with PBS before fixation in 4% paraformaldehyde for 10 min at room temperature. Next, cells were permeabilized with 0.1% (v/v) Triton X-100 in PBS for 10 min at room temperature. For visualization of ECM, cells were fixed with 100% ice-cold methanol for 8 min at −20 °C. Slides were washed with PBS and blocked with 1% goat serum (TBD Science, Tianjin, China) for 30 min before washing with 0.1% (w/v) BSA in PBS. […] Cells were then mounted in DAPI Fluoromount-G (Thermo Fisher Scientific) and imaged using a Zeiss Axio Imager Z1 UV fluorescence microscope (Zeiss, Jena, Germany) and a Leica TCS SP5 laser scanning confocal microscope (Leica Biosystems, Baden-Württemberg, Germany).
# [2] = tested on: EDA-FN ECM of TGF-β1-treated fibroblasts; test: Epifluorescence assay of AF38Pep-Cy5 binding to fibrotic ECM (IVIS); format: cell-based; details: AF38Pep-Cy5 10 µg/mL
# Protocol: as §1
# [3] = tested on: fixed ECM of fibroblasts or differentiated myofibroblasts; test: AF38Pep-Cy5 labelling of ECM vs FN1 immunostaining; format: cell-based
# Protocol: as §1, with “Cells were then treated with 10 ng/mL TGF-β1 for 0, 24, 48 and 72 h. The conjugated AF38Pep-Cy5 was added to the plate wells at 10 µg/mL and was incubated for 2 h. The culture medium was removed, and cells were washed three times with PBS before replenishment with fresh serum-free DMEM.” left out
# Cells were grown to 40% confluence in 8-well glass chamber slides (Nunc, Thermo Fisher Scientific), prior to growth arrest and treatment. […] Cells were then mounted in DAPI Fluoromount-G (Thermo Fisher Scientific) and imaged using a Zeiss Axio Imager Z1 UV fluorescence microscope (Zeiss, Jena, Germany) and a Leica TCS SP5 laser scanning confocal microscope (Leica Biosystems, Baden-Württemberg, Germany).
# [4] = biological target: integrin α4 protein (ITGA4) (not stated (endogenous in fibroblasts; mouse NIH/3T3 and human HFL1 cells were cultured)) (UniProt Q00651); details: scale: % of that observed in cells that only received TGF-β1 treatment
# Chain of integrin α4 protein (ITGA4) (not stated (endogenous in fibroblasts; mouse NIH/3T3 and human HFL1 cells were cultured)) (Q00651 41-1039): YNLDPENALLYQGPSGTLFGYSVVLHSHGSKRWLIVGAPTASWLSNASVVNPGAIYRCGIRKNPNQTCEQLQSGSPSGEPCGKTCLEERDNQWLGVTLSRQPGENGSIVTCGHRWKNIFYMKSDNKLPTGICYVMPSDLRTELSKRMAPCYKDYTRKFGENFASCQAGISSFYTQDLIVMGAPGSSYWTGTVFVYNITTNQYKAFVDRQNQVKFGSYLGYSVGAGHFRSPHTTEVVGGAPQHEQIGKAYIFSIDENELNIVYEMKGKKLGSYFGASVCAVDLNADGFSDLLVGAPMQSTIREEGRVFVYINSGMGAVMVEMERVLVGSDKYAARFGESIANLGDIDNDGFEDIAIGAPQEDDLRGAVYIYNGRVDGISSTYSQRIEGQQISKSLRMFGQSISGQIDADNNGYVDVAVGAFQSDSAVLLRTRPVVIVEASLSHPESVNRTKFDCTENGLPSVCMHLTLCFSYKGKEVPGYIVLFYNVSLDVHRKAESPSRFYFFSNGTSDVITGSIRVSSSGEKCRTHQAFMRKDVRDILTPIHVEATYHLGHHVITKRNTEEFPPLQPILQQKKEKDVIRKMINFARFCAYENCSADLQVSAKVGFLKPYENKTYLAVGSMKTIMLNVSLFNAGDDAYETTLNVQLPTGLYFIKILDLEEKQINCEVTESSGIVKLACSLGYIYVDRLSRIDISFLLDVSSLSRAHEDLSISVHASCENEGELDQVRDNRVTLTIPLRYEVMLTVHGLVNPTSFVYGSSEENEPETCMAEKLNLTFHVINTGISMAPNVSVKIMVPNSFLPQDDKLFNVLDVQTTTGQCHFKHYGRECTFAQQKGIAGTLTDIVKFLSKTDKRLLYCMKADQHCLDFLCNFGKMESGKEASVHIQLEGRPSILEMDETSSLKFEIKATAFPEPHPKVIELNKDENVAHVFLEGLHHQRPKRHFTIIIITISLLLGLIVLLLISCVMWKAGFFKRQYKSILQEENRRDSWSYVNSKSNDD
# [5] = biological target: T1, antifibrotic 38-amino-acid polypeptide …; test: ITC; 15 µM AF38Pep in the chamber well, 300 µM small peptide in the injection needle; 25 °C; HEPES buffered saline (140 mM NaCl, 1.5 mM Na2HPO4, 50 mM HEPES; pH 7); MicroCal iTC200; one set of sites model with number of binding sites assumed to be 1; details: both partners purified
# [6] = biological target: T2, FN-EDA, a peptide sharing amino acid …; test: ITC
# [7] = biological target: T2, FN-EDA, a peptide sharing amino acid …; test: ITC
molecule,measurement,setting,value
"AF38Pep-Cy5: AF38Pep conjugated to Cy5 dye (non-sulphated Cy5-NHS-ester) (VMPYISTTPAKPCTSENCGNSWYGGFKSKNENKIYFIN; disulfide 13-18 (inferred); also: Cy5 label, site not given here)","staining of fibroblast matrices, IST-9 or AF38Pep-Cy5","[1]; fibroblasts, regardless of the order of addition","minimal, regardless of the order of addition to cells"
same,blocking of IST-9 staining by AF38Pep-Cy5 pretreatment,"[1]; myofibroblasts, AF38Pep-Cy5 first, then IST-9",pre-treatment blocked IST-9 staining
same,labelling of EDA-FN after IST-9 pretreatment,"[1]; myofibroblasts, IST-9 first, then AF38Pep-Cy5",failed to label the elevated EDA-FN production
same,binding to fibrotic ECM with TGF-β1 treatment time,"[2]; TGF-β1 10 ng/mL for 24, 48, 72 h","increased binding of AF38Pep to the fibrotic ECM, which correlated with the increasing time of TGF-β1 treatment"
same,binding at 48 h vs 0 h TGF-β1 treatment,"[2]; mean ± S.E., three experiments",significant increases in binding at 48 h
same,"AF38Pep-Cy5 colocalization with FN1 staining, myofibroblast ECM",[3]; differentiated myofibroblasts,colocalization with anti-FN1 staining (yellow) was prominent in areas of fibronectin deposition at cell membranes
same,AF38Pep-Cy5 staining of fibroblast ECM,[3]; untreated control fibroblasts,little to no staining
extra domain A containing fibronectin (EDA-FN) (from UniProt P11276 33-2477) (natural protein),"total collagen synthesis (hydroxyproline assay) of NIH/3T3 cells after 48 h of TGF-β1 with AF38Pep as blocker, relative to TGF-β1 alone",[4],60
"TYSSPEDGIHEL (12-residue stretch of the C-C′ loop of extra domain A (EDA) of fibronectin; also called fibronectin EDA-peptide; EDA-FN C-C′ loop peptide; source: synthetic peptide (ChinaPeptides)) [FN-EDA, a peptide sharing amino acid sequence with the C-C′ loop of EDA-FN]",binding result,[5],binds
"VMPYISTTPAKPCTSENCGNSWYGGFKSKNENKIYFIN (designed binder, disulfide 13-18 (inferred)) [antifibrotic 38-amino-acid polypeptide (AF38Pep)]",Kd,[6],858 nM
same,Ka,[7],1.11e+06 M⁻¹
